Columns and labels:
[1] = in vitro metabolic stability test, human liver homogenate (S9 fraction); assay type: in vitro ADME; details: 100 nM, sampling 5, 10, 30, 60 minutes, LC-MS/MS, FIG. 1 (1)
Description: (§1) Using human and rat liver homogenates (S9 fractions), the in vitro metabolic stability test of tolvaptan (racemic compound), R-tolvaptan, and S-tolvaptan was performed. The concentration of each evaluated compound was set to 100 nM, and the concentration sampling of each compound in a reaction mixture was conducted over time, i.e., 5, 10, 30, and 60 minutes after addition, and measured by LC-MS/MS (FIGS. 1 (1) and (2)).

[2] = dissolution test of tolvaptan powders; assay type: physicochemical; details: Test Example 3; crystal powders; 0.1 g in 500 mL polysorbate 80 / phosphate solution pH 7.4; sampling up to 48 hours; FIG. 5
Description: The dissolution test of each of the R- and S-tolvaptan SD powders of Examples 1 and 2, tolvaptan (racemic compound) SD powders of Comparative Examples 1 to 6, and tolvaptan (racemic compound) crystal powder of Comparative Example 7 was performed (FIGS. 2 to 4). In the dissolution test method, the R- and S-tolvaptan SD powders, tolvaptan (racemic compound) SD powders, and tolvaptan (racemic compound) crystal powder were weighed out in individual amounts of 0.1 g, and added to a solution (500 mL) for dissolution test shown in Table 2. None of the tolvaptans in an amount weighed above were dissolved in the solvent for dissolution test, and were fully suspended. Sequential sampling was performed 0.083, 0.167, 0.5, 1, 2, 4, 6, 8, 12, 24, 48, and 144 hours after addition.
The dissolution test of each of the R- and S-tolvaptan crystal powders was performed (FIG. 5). As a control, the result of Comparative Example 7 in Test Example 2 above was plotted. In the dissolution test method, an R-tolvaptan crystal powder (mean particle size: 34.0 μm) or an S-tolvaptan crystal powder (mean particle size: 35.8 μm) was weighed out in an amount of 0.1 g, and added to the solution for the dissolution test (500 mL) shown in Table 2 above. None of the tolvaptans in an amount weighed above were dissolved in the solution for dissolution test, and were fully suspended. […]

[3] = in vitro metabolic stability test, rat liver homogenate (S9 fraction); assay type: in vitro ADME; details: 100 nM, sampling 5, 10, 30, 60 minutes, LC-MS/MS, FIG. 1 (2)
Description: as §1

Structure (SMILES) | in vitro metabolic stability (disappearance over time) [1] | dissolution amount [2] | in vitro metabolic stability (disappearance over time) [3]
Cc1ccccc1C(=O)Nc1ccc(C(=O)N2CCC[C@H](O)c3cc(Cl)ccc32)c(C)c1 [S-tolvaptan, S-(−)-7-chloro-5-hydroxy-1-[2-methyl-4-(2-methylbenzoylamino)benzoyl]-2,3,4,5-tetrahydro-1H-benzazepine] | disappeared slowly compared to tolvaptan (racemic compound) or R-tolvaptan, and had high metabolic stability | slightly higher than that of the tolvaptan (racemic compound) crystal of Comparative Example 7, and remained fairly constant | 
Cc1ccccc1C(=O)Nc1ccc(C(=O)N2CCC[C@@H](O)c3cc(Cl)ccc32)c(C)c1 [R-tolvaptan, R-(+)-7-chloro-5-hydroxy-1-[2-methyl-4-(2-methylbenzoylamino)benzoyl]-2,3,4,5-tetrahydro-1H-benzazepine] |  | slightly higher than that of the tolvaptan (racemic compound) crystal of Comparative Example 7, and remained fairly constant | disappeared slowly compared to tolvaptan (racemic compound) or S-tolvaptan, and had high metabolic stability

— patent publication US9597283B2, “Injectable depot formulation comprising optically active tolvaptan and process of producing the same” (OTSUKA PHARMACEUTICAL CO., LTD., priority 2012, dated 2017)
